In publication PMC3747596 (PLoS ONE, 2013):

Key:
[1] = molecular target: non-opioid receptors and transporters; assay: Radioligand displacement panel, non-opioid targets; conditions: read-out: K i for all non-opioid targets; 43 non-opioid targets
M1-R [2] = molecular target: T1, M1-R (Homo sapiens, UniProt P11229); design: method as in ref 9 = [9]; 9 Inan S (2010) Pharmacological and neuroanatomical analysis of GNTI-induced repetitive behavior in mice [Ph.D. thesis Thesis]. Philadelphia, PA: Temple University. Available: http://digital.library.t; conditions: at 1 µM; [3H]N-methylscopolamine; cited from earlier work
T1 sequence (P11229 whole entry): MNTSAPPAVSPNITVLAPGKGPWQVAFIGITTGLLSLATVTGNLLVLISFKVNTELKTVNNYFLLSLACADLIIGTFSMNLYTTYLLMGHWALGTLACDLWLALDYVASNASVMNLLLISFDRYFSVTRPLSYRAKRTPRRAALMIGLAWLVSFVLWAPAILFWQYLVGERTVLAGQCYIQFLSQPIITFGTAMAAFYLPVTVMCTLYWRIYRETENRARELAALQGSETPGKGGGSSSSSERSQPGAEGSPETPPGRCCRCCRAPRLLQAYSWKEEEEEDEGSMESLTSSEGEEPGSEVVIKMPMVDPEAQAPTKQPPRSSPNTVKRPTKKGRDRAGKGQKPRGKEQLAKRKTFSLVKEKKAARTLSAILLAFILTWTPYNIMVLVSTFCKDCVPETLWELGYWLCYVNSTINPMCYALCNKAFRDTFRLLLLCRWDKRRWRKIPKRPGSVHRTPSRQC

α1A-AR [3] = molecular target: T2, α1A-AR (Homo sapiens, UniProt P35348); assay: Intracellular calcium mobilization assay, α1A-AR
T2 sequence (P35348 1-466): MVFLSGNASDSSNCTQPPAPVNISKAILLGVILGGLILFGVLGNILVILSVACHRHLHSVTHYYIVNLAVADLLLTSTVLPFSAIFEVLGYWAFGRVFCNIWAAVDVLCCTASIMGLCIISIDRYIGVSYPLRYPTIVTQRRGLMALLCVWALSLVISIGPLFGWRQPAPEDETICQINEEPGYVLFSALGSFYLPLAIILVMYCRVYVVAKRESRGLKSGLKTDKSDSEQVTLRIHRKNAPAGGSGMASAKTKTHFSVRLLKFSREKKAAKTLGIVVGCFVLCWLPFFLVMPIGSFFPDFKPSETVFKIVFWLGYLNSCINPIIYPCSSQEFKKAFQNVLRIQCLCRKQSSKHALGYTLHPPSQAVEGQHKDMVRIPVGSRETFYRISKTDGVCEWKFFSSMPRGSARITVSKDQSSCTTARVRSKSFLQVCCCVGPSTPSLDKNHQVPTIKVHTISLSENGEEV

α1A-AR [4] = molecular target: T2, α1A-AR; assay: PI hydrolysis assay, α1A-AR; conditions: hydrolysis of phosphatidylinositol 4,5-bisphosphate (PI)
μ opioid receptor = molecular target: T3, μ opioid receptor (Homo sapiens, UniProt P35372); assay: Radioligand displacement, μ; format: binding
T3 construct: expressed in transfected cells
T3 sequence (P35372 whole entry): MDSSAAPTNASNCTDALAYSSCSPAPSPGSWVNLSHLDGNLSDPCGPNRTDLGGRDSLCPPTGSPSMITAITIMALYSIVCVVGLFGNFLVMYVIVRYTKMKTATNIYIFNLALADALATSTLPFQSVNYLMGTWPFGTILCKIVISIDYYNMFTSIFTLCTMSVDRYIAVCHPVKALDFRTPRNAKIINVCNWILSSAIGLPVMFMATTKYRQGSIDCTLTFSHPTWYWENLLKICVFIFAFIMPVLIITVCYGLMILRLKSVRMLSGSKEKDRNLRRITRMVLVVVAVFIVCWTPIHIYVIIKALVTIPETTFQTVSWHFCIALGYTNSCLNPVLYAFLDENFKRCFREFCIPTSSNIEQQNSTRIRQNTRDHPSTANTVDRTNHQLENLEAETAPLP

M1-R [5] = molecular target: T1, M1-R
[6] = molecular target: noradrenaline transporter (NET) (Homo sapiens, UniProt P23975); assay: Inhibition of noradrenaline transporter, fluorescent dye uptake; format: cell-based; conditions: 95% CI = 0.5 to 2.6 µM; read-out: IC50, inhibition of noradrenaline transport
noradrenaline transporter (NET), sequence (P23975 whole entry): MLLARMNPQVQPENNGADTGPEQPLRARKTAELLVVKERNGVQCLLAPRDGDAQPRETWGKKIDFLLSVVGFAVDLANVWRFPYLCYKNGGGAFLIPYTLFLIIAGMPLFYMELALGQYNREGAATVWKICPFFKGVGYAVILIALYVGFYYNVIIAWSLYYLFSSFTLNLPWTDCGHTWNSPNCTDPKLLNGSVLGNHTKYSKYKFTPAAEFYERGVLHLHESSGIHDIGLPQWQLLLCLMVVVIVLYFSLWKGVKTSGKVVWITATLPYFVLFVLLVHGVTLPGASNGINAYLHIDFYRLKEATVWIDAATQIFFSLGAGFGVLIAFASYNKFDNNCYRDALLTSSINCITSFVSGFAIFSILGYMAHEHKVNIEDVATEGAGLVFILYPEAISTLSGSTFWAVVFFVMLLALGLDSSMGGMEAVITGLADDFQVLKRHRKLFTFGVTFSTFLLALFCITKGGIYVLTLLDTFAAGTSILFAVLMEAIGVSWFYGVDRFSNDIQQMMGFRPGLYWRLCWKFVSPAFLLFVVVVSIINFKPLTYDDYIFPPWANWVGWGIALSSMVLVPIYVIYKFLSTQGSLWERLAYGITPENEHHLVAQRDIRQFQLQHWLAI

κ-OR = system: κ-OR; design: method as in ref 3 = [3]; 3 Béguin C, Cohen BM (2009) Medicinal Chemistry of Kappa Opioid Receptor Antagonists. In: Dean RL, Bilsky EJ, Negus SS, editors. Opiate Receptors and Antagonists: from Bench to Clinic. New York: Human; conditions: cited from earlier work
human NOP = molecular target: T4, human NOP (Homo sapiens, UniProt P41146); assay: Inhibition of cyclic AMP production by N/OFQ, GloSensor assay in HEK293T cells; format: cell-based
T4 construct: expressed in transfected cells; host or cells: HEK293T
T4 sequence (P41146 whole entry): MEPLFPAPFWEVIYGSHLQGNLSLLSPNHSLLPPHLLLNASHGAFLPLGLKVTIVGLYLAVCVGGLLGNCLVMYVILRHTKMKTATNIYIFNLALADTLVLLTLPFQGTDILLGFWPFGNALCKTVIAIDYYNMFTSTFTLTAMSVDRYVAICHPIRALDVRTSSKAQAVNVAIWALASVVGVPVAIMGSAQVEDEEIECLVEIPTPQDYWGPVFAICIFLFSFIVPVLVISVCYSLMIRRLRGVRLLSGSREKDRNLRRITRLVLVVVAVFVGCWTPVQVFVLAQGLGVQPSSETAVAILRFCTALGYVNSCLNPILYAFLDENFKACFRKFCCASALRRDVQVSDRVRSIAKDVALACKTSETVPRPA

[7] = system: glucocorticoid receptor NR3C1; design: method as in PMID 10875228; conditions: at 10 µM; cited from earlier work
[8] = molecular target: N-methyl-D-aspartate (NMDA) receptor; design: method as in PMID 7681005; conditions: [3H]CGP-39,653, glutamate site; cited from earlier work

## N=C(N)Nc1ccc2[nH]c3c(c2c1)C[C@@]1(O)[C@H]2Cc4ccc(O)c5c4[C@@]1(CCN2CC1CC1)[C@H]3O5 [GNTI, 5′-guanidinonaltrindole]
[1]
  Ki: > 2000 nM
M1-R [2]
  displacement from M1-R: 52%
α1A-AR [3]
  EC50: 41 nM
α1A-AR [3]; calcium mobilization, GNTI 30 µM
  activation of α1A-AR / inhibition of activation by noradrenaline: neither activated α1A-AR nor inhibited activation by noradrenaline
α1A-AR [3]; read-out: increase of the maximal response to noradrenaline
  Emax: ≤ 20%
α1A-AR [4]
  effect on maximal response to noradrenaline, PI hydrolysis: slightly reduced the maximal response to noradrenaline
μ opioid receptor
  Ki: 54 nM
M1-R [5]; antagonism of acetylcholine, calcium mobilization, 95% CI = 3.2 to 4.3 µM
  K B: 3.7 µM
M1-R [5]; calcium mobilization
  activation of M1-R: did not activate M1-R
M1-R [5]; functional potency at κ-OR (ref 3) versus K B at M1-R
  selectivity for κ-OR over M1-R: > 3,000 fold

## CC(C)[C@@H](CN1CC[C@@](C)(c2cccc(O)c2)[C@@H](C)C1)NC(=O)[C@H]1Cc2ccc(O)cc2CN1 [JDTic]
[6]
  IC50: 1100 nM
κ-OR
  K e in κ-OR functional assays: < 20 pM
Human NOP; 95% CI = 4.6 to 1,200 nM
  K B equivalent to the pA2 for a competitive antagonist: 73 nM
Human NOP; JDTic 30 µM
  effect on maximally-effective concentrations of N/OFQ (>100 nM): not affected
Human NOP; antagonism of N/OFQ, inhibition of cyclic AMP production, read-out: pA2 (converted)
  Kb: 79.4 nM

## Oc1ccc2c3c1O[C@H]1c4[nH]c5c(c4C[C@@]4(O)[C@@H](C2)N(CC2CC2)CC[C@]314)C[C@@]1(O)[C@H]2Cc3ccc(O)c4c3[C@@]1(CCN2CC1CC1)[C@H]5O4 [nor-BNI, Nor-binaltorphimine]
[7]
  binding to glucocorticoid receptor NR3C1: No binding was detected
[8]
  Ki: > 1000 nM
